Experimental data published in patent publication US20260231968A1, “AN ECO-FRIENDLY, SUSTAINABLE FOOD PRESERVATIVE” (priority 2023, published 2026).

Legend:
[1] = system: Aspergillus flavus; assay: Microbial Growth Inhibition Test, broth microdilution optical method; assay type: cell-based; conditions: 12 μM
Experimental: The IC90 of psoriasin for several microorganisms was determined by Microbial Growth Inhibition Tests. The tests were performed using the Broth Microdilution Optical Method based on standardized protocols M27 (yeasts) and M38 (filamentous fungi) of the Clinical and Laboratory Standards Institute. […] MOPS, LB (Luria-Bertani), and TSB ([…]) medium types were used, depending on the species being tested. The absorbance was calibrated to each species, and was measured between 450 nm to 650 nm.
In addition, ethyl lauroyl arginate (LAE), a commercially available food preservative, was tested in similar growth conditions as a reference.

[2] = system: initial microbial load of plant-based meat substitute; assay: Microbial load of plant-based meat substitute during storage; assay type: cell-based
Experimental: The ability of psoriasin to extend the shelf life of a plant-based meat substitute was examined under standard storage conditions. Three groups, each stored as an open package at […], were assessed over the course of 16 days. The groups included i) an untreated control, ii) a nisin-treated sample, and iii) a psoriasin-treated sample at 0.65%. A single source of the plant-based meat substitute was used and each group was reproduced in triplicate. The microbial load of the plant-based meat substitute samples was based on the initial microbial load without the addition of antibiotics and without the addition of mold, yeast or bacteria. Samples from each group were taken on days 1, 3, 5, 10, 11 and 16 and total CFU count was determined by plating on LB and PDA agar petri dishes.

[3] = system: E. coli BL21 cells; assay: E. coli growth in LB with S100a8 / S100a9; assay type: cell-based; conditions: 37° C; for inhibition of E. coli growth: 0.18 μM to 50 μM
Experimental: E. coli cells in LB media were incubated in a 96-well plate at 37° C. with S100a8 (FIG. 10A) or S100a9 (FIG. 10B) at concentrations varying from 0.18 μM to 50 μM. Optical density was measured every 10 minutes by absorbance at 600 nm over the course of approximately 19 hours. […] In addition, the same experiment was performed using varying equimolar concentrations of S100a8 and S100a9 that were pre-incubated for two hours at 4° C. under constant shaking.

[4] = system: C. albicans; assay: C. albicans growth in RPMI-MOPS with S100a12; assay type: cell-based, Candida albicans; conditions: 30° C, approximately 19 hours
Experimental: C. albicans cells in RPMI-MOPS were incubated in a 96-well plate at 30° C. with S100a12 at concentrations of 0.32, 2.5, 5 and 20 μM (FIG. 11). Optical density was measured every 10 minutes by absorbance at 600 nm over the course of approximately 19 hours.

CCCCCCCCCCCC(=O)N[C@@H](CCCN=C(N)N)C(=O)OCC [LAE, ethyl lauroyl arginate, reference compound]
inhibition of A. flavus growth [1]: approximately 40%

nisin [reference compound]
Yeast & Mold Count ([2]; Day 1): 2 × 10^2
Total CFU count ([2]; Day 1, open package, psoriasin 0.65%): 1.2 × 10^4 CFU
Total CFU count ([2]; Day 3): 1.2 × 10^4 CFU
Yeast & Mold Count ([2]; Day 3): 2 × 10^2
Total CFU count ([2]; Day 5): 5 × 10^4 CFU
Yeast & Mold Count ([2]; Day 5): 1.4 × 10^3
Total CFU count ([2]; Day 10): 1.8 × 10^8 CFU
Yeast & Mold Count ([2]; Day 10): 1.47 × 10^4
Total CFU count ([2]; Day 11): 2.35 × 10^8 CFU
Yeast & Mold Count ([2]; Day 11): 1.46 × 10^4
Total CFU count ([2]; Day 16): 1.28 × 10^10 CFU
Yeast & Mold Count ([2]; Day 16): 3.2 × 10^4

B1: S100a8: Recombinant S100 protein; human S100a8 sequence SEQ ID NO: 3 (protein, listed as Homo sapiens)
chain: MLTELEKALNSIIDVYHKYSLIKGNFHAVYRDDLKKLLETECPQYIRKKGADVWFKELDINTDGAVNFQEFLILVIKMGVAAHKKSHEESHKE
inhibition of E. coli growth [3]: Inhibit Growth of E. coli BL21 Cells
concentration giving full inhibition of E. coli growth ([3]; approximately 19 hours, OD 600 nm): ≤ 1.5 µM

B2: S100a9: Recombinant S100 protein; human S100a9 sequence SEQ ID NO: 4 (protein, listed as Homo sapiens)
chain: MTCKMSQLERNIETIINTFHQYSVKLGHPDTLNQGEFKELVRKDLQNFLKKENKNEKVIEHIMEDLDTNADKQLSFEEFIMLMARLTWASHEKMHEGDEGPGHHHKPGLGEGTP
inhibition of E. coli growth [3]: Inhibit Growth of E. coli BL21 Cells

B3: S100a12: S100 protein; human S100a12 sequence SEQ ID NO: 6 (protein, listed as Homo sapiens)
chain: MTKLEEHLEGIVNIFHQYSVRKGHFDTLSKGELKQLLTKELANTIKNIKDKAVIDEIFQGLDANQDEQVDFQEFISLVAIALKAAHYHTHKE
concentration with significant inhibition of C. albicans growth [4]: ≥ 0.32 µM
